Common to all, as to format: cell-based
Experiment [1] concerns Aspergillus niger ATCC 6257. Description: agar incorporation test, antifungal activity. The conditions noted are these: Aspergillus niger, ATCC6257, 96 h, lowest concentration showing no growth or sporulation, four days at 28° C, read-out: Antifungal Activity A. niger, minimum inhibitory concentration. The method, then: The anti-fungal activity of the test compounds was determined employing the "agar incorporation" technique, utilizing spores from Aspergillus niger ATCC 6257 as a representative organism. Test solutions were prepared as described above in acetone or dimethylsulfoxide. A source of carbon agar such as Mycophil Agar was used. The agar was melted and cooled and placed in a constant temperature water bath at 45° C + 3° C. About 13-14 ml of the agar was then poured into a sterile Petri dish, the required amount of test solution to give the desired concentration immediately added thereto, and the dish rotated and swirled by hand to obtain a uniform mixture before the agar hardened.
The hardened plates were inoculated with the test organism by fishing spores from a 7-14 day old slant with the inocculating needle and spotting the spores on the plates, usually in several places. The inoculated plates were incubated for four days in an incubator maintained at 28° C +2° C and with a relative humidity of 95%+.
The lowest concentration of each test compound showing no growth or sporulation of the test organism was taken as the minimum inhibitory concentration and is reported in the following tabulation.
(§1) The button assay and agar incorporation tests were also utilized to determine the corresponding inhibitory concentrations of various control materials, viz., the following well known commercial antimicrobials and fungicides: hexachlorophene, tribromosalicylanilide, trichlorocarbanilide,Captan (N-(trichloromethylthio)4cyclohexene-1,2-dicarboximide) and Zineb (zinc ethylenebis[dithiocarbamate]). The minimum inhibitory concentration of each of the various control materials against the respective organisms is indicated in Table IV below: […]

Experiment [2] has as its system Bacillus subtilis ATCC 9525. Put plainly: button assay, antibacterial activity. Particulars: Bacillus subtilis, ATCC9525, lowest concentration showing a clear zone of inhibition, 24 hours at 37° C, read-out: Antibacterial Activity B.subtilis, minimum inhibitory concentration. The method, then: (§2) In the test program, the minimum inhibitory concentrations of the respective test compounds against various Gram positive and Gram negative bacteria were determined, employing the "button assay" method. The test organisms utilized were standard cultures of Staphylococcus aureus ATCC 6538 DR, a penicillin resistant Gram positive bacterium; Bacillus subtilis ATCC 9525, a spore-forming Gram positive bacillus; and Salmonella typhosa ATCC 6539, a Gram negative bacterium.
(§3) In the tests the respective compounds were dissolved in a suitable solvent, usually acetone or dimethylsulfoxide, to give solutions with known concentrations of active material. The highest concentration was ordinarily 1000 ppm (parts per million) [0.1%], and dilutions were made in suitable steps down to 1 ppm. Penicillin test buttons of filter paper having a diameter of 13 mm (socalled "Peniassay" buttons) were added to each solution within a test tube and left submerged for five minutes. They were then removed and left to dry on paper towels under sterile conditions. A laminar flow sterile cabinet equipped with ultraviolet lamps operating under positive air pressure was utilized for this purpose.
(§4) An 18-24 hour old nutrient broth culture (standard 1.5% nutrient agar) prepared in conventional manner from a slant and having passed through at least three consecutive daily transfers was used for inoculation. Melted and cooled sterile agar (45° C) was inoculated with the respective broth cultures by addition of 20 ml broth per liter of agar. The agar was then dispensed into Petri dishes (20 ml per plate) under sterile conditions and allowed to harden.
The test buttons were placed on the surface of the hardened agar and the plates incubated for 24 hours at 37° C. Where, on inspection, a clear zone of inhibition appeared around the button, inhibition of growth was presumed. Where growth touched the button there was no inhibition. For each of the test compounds, the lowest concentration showing a clear zone is reported as the inhibitory concentration in the following table.
as §1

Experiment [3] has as its system Staphylococcus aureus ATCC 6538 DR. Put plainly: button assay, antibacterial activity. Particulars: Staphylococcus aureus, ATCC6538, 24 h, read-out: Antibacterial Activity S.aureus, minimum inhibitory concentration. The method, then:
as §2, §3, §4
(§5) The test buttons were placed on the surface of the hardened agar and the plates incubated for 24 hours at 37° C. Where, on inspection, a clear zone of inhibition appeared around the button, inhibition of growth was presumed. Where growth touched the button there was no inhibition. For each of the test compounds, the lowest concentration showing a clear zone is reported as the inhibitory concentration in the following table. […]

Experiment [4] concerns Salmonella typhosa ATCC 6539. Description: button assay, antibacterial activity. The conditions noted are these: Salmonella enterica, 24 h, read-out: Antibacterial Activity S.typhosa, minimum inhibitory concentration. The method, then: as §2
The highest concentration was ordinarily 1000 ppm (parts per million) [0.1%], and dilutions were made in suitable steps down to 1 ppm. Penicillin test buttons of filter paper having a diameter of 13 mm (socalled "Peniassay" buttons) were added to each solution within a test tube and left submerged for five minutes. They were then removed and left to dry on paper towels under sterile conditions. A laminar flow sterile cabinet equipped with ultraviolet lamps operating under positive air pressure was utilized for this purpose.
as §4, §5

The structures appear in SMILES notation. In brackets after ≈: the same amount, converted by molar mass.

In the case of `N#CC=CS(=O)(=O)c1ccc(NS(=O)(=O)c2ccc(Cl)cc2[N+](=O)[O-])cc1` [Example 23.3, 3-[4-(4-chloro-2-nitrobenzenesulfonamido)benzenesulfonyl]acrylonitrile], the MIC in experiment [1] was 100 µg/mL (≈ 234 µM); in experiment [2], 10 µg/mL (≈ 23.4 µM); in experiment [3] it was 10 µg/mL (≈ 23.4 µM); in experiment [4], 20 µg/mL (≈ 46.7 µM).
In the case of `N#CC=CS(=O)(=O)c1ccc(NS(=O)(=O)c2cc(Cl)cc(Cl)c2O)cc1` [Example 24, 3-[4-(3,5-dichloro-2-hydroxybenzenesulfonamido)-benzenesulfonyl]acrylonitrile], the MIC was found to be 1000 µg/mL (≈ 2310 µM) in experiment [1], 300 µg/mL (≈ 692 µM) in experiment [2], 300 µg/mL (≈ 692 µM) in experiment [3] and 300 µg/mL (≈ 692 µM) in experiment [4].
For `N#CC=CS(=O)(=O)c1ccc(NS(=O)(=O)c2ccc(O)c(C(=O)O)c2)cc1` [Example 25, 3-[4-(4-HYDROXY-3-[…])-BENZENESULFONYL]ACRYLONITRILE], the MIC in experiment [1] was found to be 500 µg/mL (≈ 1220 µM); in experiment [2], 50 µg/mL (≈ 122 µM); in experiment [3], 50 µg/mL (≈ 122 µM); in experiment [4], 50 µg/mL (≈ 122 µM).
Take `N#CC=CS(=O)(=O)c1ccc(NS(=O)(=O)c2cccc(C(=O)O)c2)cc1` [Example 26, 3-[4-(3-carboxybenzenesulfonamido)-benzenesulfonyl]acrylonitrile]: the MIC in experiment [1] was above 1000 µg/mL; in experiment [2] it was 10 µg/mL (≈ 25.5 µM); in experiment [3], 10 µg/mL (≈ 25.5 µM); in experiment [4], 10 µg/mL (≈ 25.5 µM).
For `CCOC(=O)c1ccc(S(=O)(=O)Nc2ccc(S(=O)(=O)C=CC#N)cc2)cc1` [Example 27, 3-[4-(4-[…])BENZENESULFONYL]ACRYLONITRILE], the MIC in experiment [1] came to 100 µg/mL (≈ 238 µM); in experiment [2], 20 µg/mL (≈ 47.6 µM); in experiment [3], 10 µg/mL (≈ 23.8 µM); in experiment [4], 10 µg/mL (≈ 23.8 µM).
On to `COc1ccc(S(=O)(=O)Nc2ccc(S(=O)(=O)C=CC#N)cc2)cc1` [Example 28, 3-[4-(4-methoxybenzenesulfonamido)benzenesulfonyl] acrylonitrile], for which the MIC was above 1000 µg/mL in experiment [1], 10 µg/mL (≈ 26.4 µM) in experiment [2], 1 µg/mL (≈ 2.64 µM) in experiment [3] and 5 µg/mL (≈ 13.2 µM) in experiment [4].
Regarding `COc1ccc(S(=O)(=O)Nc2ccc(S(=O)(=O)C=CC#N)cc2)cc1OC` [Example 29.1, 3-[4-(3,4-dimethoxybenzenesulfonamido)benzenesulfonyl]acrylonitrile], the MIC was determined as 300 µg/mL (≈ 734 µM) in experiment [1], 10 µg/mL (≈ 24.5 µM) in experiment [2], 20 µg/mL (≈ 49 µM) in experiment [3] and 10 µg/mL (≈ 24.5 µM) in experiment [4].
As for `COc1ccc(OC)c(S(=O)(=O)Nc2ccc(S(=O)(=O)C=CC#N)cc2)c1` [Example 29.2, 3-[4-(2,5-dimethoxybenzenesulfonamido)benzenesulfonyl]acrylonitrile], the MIC in experiment [1] was found to be 1000 µg/mL (≈ 2450 µM); in experiment [2] it was 20 µg/mL (≈ 49 µM); in experiment [3], 20 µg/mL (≈ 49 µM); in experiment [4], 50 µg/mL (≈ 122 µM).
Consider `CC(=O)Nc1ccc(S(=O)(=O)Nc2ccc(S(=O)(=O)C=CC#N)cc2)cc1` [Example 30, 3-[4-(4-[…])BENZENESULFONYL]ACRYLONITRILE], for which the MIC in experiment [1] was above 1000 µg/mL; in experiment [2], 50 µg/mL (≈ 123 µM); in experiment [3] it was 50 µg/mL (≈ 123 µM); in experiment [4] it was 50 µg/mL (≈ 123 µM).
Consider `N#CC=CS(=O)(=O)c1ccc(NC(=O)c2cccc(S(=O)(=O)Nc3ccc(S(=O)(=O)C=CC#N)cc3)c2)cc1` [Example 31, N'-4-(2-cyanoethenesulfonyl)phenylN"-3-(2-cyanoethenesulfonyl)phenylsulfamoylbenzamide], for which the MIC was determined as 100 µg/mL (≈ 172 µM) in experiment [1], 20 µg/mL (≈ 34.3 µM) in experiment [2], 20 µg/mL (≈ 34.3 µM) in experiment [3] and 20 µg/mL (≈ 34.3 µM) in experiment [4].
Take `N#CC=CS(=O)(=O)c1ccc(NS(=O)(=O)c2ccc(C3=CC3(Cl)Cl)cc2)cc1` [Example 32, 3-[4-(4-dichlorocarbostyrenesulfonamido)benzenesulfonyl]acrylonitrile]: the MIC in experiment [1] stood at 1000 µg/mL (≈ 2200 µM); in experiment [2], 5 µg/mL (≈ 11 µM); in experiment [3] it was 5 µg/mL (≈ 11 µM); in experiment [4], 5 µg/mL (≈ 11 µM).
Consider `N#CC=CS(=O)(=O)c1ccc(NS(=O)(=O)c2cccc(S(=O)(=O)Nc3ccc(S(=O)(=O)C=CC#N)cc3)c2)cc1` [Example 33, N.N'-bis-[4-(2-cyanoethenesulfonyl)phenyl]-1,3-phenylenesulfonamide], for which the MIC was above 1000 µg/mL in experiment [1], 10000 µg/mL (≈ 16200 µM) in experiment [2], 300 µg/mL (≈ 485 µM) in experiment [3] and 100 µg/mL (≈ 162 µM) in experiment [4].
On the same counts, the results for `N#CC=CS(=O)(=O)c1ccc(NS(=O)(=O)c2ccc(Oc3ccc(S(=O)(=O)Nc4ccc(S(=O)(=O)C=CC#N)cc4)cc3)cc2)cc1` [Example 34, 4,4'-N,N'-bis[4-(2-cyanoethenesulfonyl)-phenylsulfamoyl]diphenyl ether] are above 1000 µg/mL, 100 µg/mL (≈ 141 µM), 100 µg/mL (≈ 141 µM) and 50 µg/mL (≈ 70.3 µM).
On the same counts, the results for `N#CC=CS(=O)(=O)c1ccc(NS(=O)(=O)c2ccc3ccccc3c2)cc1` [Example 35, 3-[4-(2-naphthalenesulfonamido)benzenesulfonyl]acrylonitrile] are above 1000 µg/mL, 5 µg/mL (≈ 12.5 µM), 10 µg/mL (≈ 25.1 µM) and 5 µg/mL (≈ 12.5 µM).
On the same counts, the results for `CC(=O)Nc1nnc(S(=O)(=O)Nc2ccc(S(=O)(=O)C=CC#N)cc2)s1` [Example 38, 3-[4-(2-acetamido-1,3,4-thiadiazole-5-sulfonamido)benzenesulfonyl]acrylonitrile] are 1000 µg/mL (≈ 2420 µM), 50 µg/mL (≈ 121 µM), 500 µg/mL (≈ 1210 µM) and 100 µg/mL (≈ 242 µM).
On to `N#CC=CS(=O)(=O)c1ccc(NSC(Cl)(Cl)Cl)cc1` [Example 42, 3-(4-trichlorosulfenamidobenzenesulfonyl)acrylonitrile], for which the MIC was found to be 1000 µg/mL (≈ 2800 µM) in experiment [1], 20 µg/mL (≈ 55.9 µM) in experiment [2], 20 µg/mL (≈ 55.9 µM) in experiment [3] and 20 µg/mL (≈ 55.9 µM) in experiment [4].
Take `N#CC=CS(=O)(=O)c1ccc(NSc2ccc([N+](=O)[O-])cc2)cc1` [Example 43, 3-[4-(4-nitrobenzenesulfenamido)benzenesulfonyl]acrylonitrile]: the MIC amounted to 300 µg/mL (≈ 830 µM) in experiment [1], 5 µg/mL (≈ 13.8 µM) in experiment [2], 5 µg/mL (≈ 13.8 µM) in experiment [3] and 10 µg/mL (≈ 27.7 µM) in experiment [4].
Regarding `N#CC=CS(=O)(=O)c1ccc(N=S=O)cc1` [Example 44, 3-(4-sulfinylimidobenzenesulfonyl)acrylonitrile], the MIC in experiment [1] came to 300 µg/mL (≈ 1180 µM); in experiment [2], 10 µg/mL (≈ 39.3 µM); in experiment [3] it was 20 µg/mL (≈ 78.6 µM); in experiment [4], 10 µg/mL (≈ 39.3 µM).
For `N#CC=CS(=O)(=O)c1ccc(NP(=O)(Nc2ccc(S(=O)(=O)C=CC#N)cc2)Nc2ccc(S(=O)(=O)C=CC#N)cc2)cc1` [Example 45, TRIS-N,N', N"-4-(2-CYANOETHENESULFONYL)PHENYL PHOSPHORAMIDE], the MIC in experiment [1] is 300 µg/mL (≈ 449 µM); in experiment [2] it was 5 µg/mL (≈ 7.48 µM); in experiment [3], 50 µg/mL (≈ 74.8 µM); in experiment [4] it was 50 µg/mL (≈ 74.8 µM).
Take `CN(C)P(=O)(Nc1ccc(S(=O)(=O)C=CC#N)cc1)N(C)C` [Example 51, bis-dimethylamido-4-(2-cyanoethenesulfonyl)anilidophosphine oxide]: the MIC was 100 µg/mL (≈ 292 µM) in experiment [1], 20 µg/mL (≈ 58.4 µM) in experiment [2], 20 µg/mL (≈ 58.4 µM) in experiment [3] and 10 µg/mL (≈ 29.2 µM) in experiment [4].

Source of the values: patent US3943154A, “Acylamides of beta-cyano-ethenesulfonyl substituted aminoarenes” (Sanitized Incorporated, priority 1973, dated 1976).
